Laboratory results reported in US20260035359A1, “HERBICIDAL IMIDAZOLE COMPOUNDS” (SYNGENTA CROP PROTECTION AG, priority 2022, published 2026).

Tests used:
Type in all cases: in vivo
[1] = system: Echinochloa crus-gali (ECHCG); assay: Pre-emergence herbicidal glasshouse test; conditions: 250 g/ha, sprayed after one day cultivation, evaluated after 13 days
How it was run: (§1)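 Spray: acetone/water 50:50 + 0.5% Tween 20, 250 g/ha unless stated. Timing: day 1 pre-em, day 8 post-em. Conditions 24/16° C, 14 h light, 65% RH, watered twice daily. Read-out: % damage at 13 d, scored 1–5 (5=81-100%, 1=0-20%).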

[2] = system: Amaranthus retoflexus (AMARE); assay: Pre-emergence herbicidal glasshouse test; conditions: 250 g/ha, sprayed after one day cultivation, evaluated after 13 days
How it was run: as §1

[3] = system: Amaranthus pa/meri (AMAPA); assay: Pre-emergence herbicidal glasshouse test; conditions: 250 g/ha, sprayed after one day cultivation, evaluated after 13 days
How it was run: as §1

Setaria faberi (SETFA) [4] = assay: Pre-emergence herbicidal glasshouse test; conditions: 250 g/ha, sprayed after one day cultivation, evaluated after 13 days
How it was run: as §1

[5] = system: Ipomoea hederacea (IPOHE); assay: Pre-emergence herbicidal glasshouse test; conditions: 250 g/ha, sprayed after one day cultivation, evaluated after 13 days
How it was run: as §1

[6] = system: Echinochloa crus-gali (ECHCG); assay: Post-emergence herbicidal glasshouse test; conditions: 250 g/ha, sprayed after 8 days cultivation, evaluated after 13 days
How it was run: as §1

[7] = system: Amaranthus retoflexus (AMARE); assay: Post-emergence herbicidal glasshouse test; conditions: 250 g/ha, sprayed after 8 days cultivation, evaluated after 13 days
How it was run: as §1

[8] = system: Amaranthus pa/meri (AMAPA); assay: Post-emergence herbicidal glasshouse test; conditions: 250 g/ha, sprayed after 8 days cultivation, evaluated after 13 days
How it was run: as §1

Setaria faberi (SETFA) [9] = assay: Post-emergence herbicidal glasshouse test; conditions: 250 g/ha, sprayed after 8 days cultivation, evaluated after 13 days
How it was run: as §1

[10] = system: Ipomoea hederacea (IPOHE); assay: Post-emergence herbicidal glasshouse test; conditions: 250 g/ha, sprayed after 8 days cultivation, evaluated after 13 days
How it was run: as §1

Row | Compound | percentage damage caused to the plant, ECHCG [1] | percentage damage caused to the plant, AMARE [2] | percentage damage caused to the plant, AMAPA [3] | percentage damage caused to the plant, SETFA (Setaria faberi (SETFA) [4]) | percentage damage caused to the plant, IPOHE [5] | percentage damage caused to the plant, ECHCG [6] | percentage damage caused to the plant, AMARE [7] | percentage damage caused to the plant, AMAPA [8] | percentage damage caused to the plant, SETFA (Setaria faberi (SETFA) [9]) | percentage damage caused to the plant, IPOHE [10]
1 | CSCCc1nc(C(F)(F)F)cn1Cc1ncc(Cl)cn1 [Compound 1.083] | 1 (1=0-20%) | 4 (4=61-80%) | 3 (3=41-60%) | 1 (1=0-20%) | 5 (5=81-100%) | 1 (1=0-20%) | 4 (4=61-80%) | 3 (3=41-60%) | 1 (1=0-20%) | 4 (4=61-80%)
2 | FC(F)c1nc(C(F)(F)F)cn1Cc1ncc(Cl)cn1 [Compound 1.070, 5-chloro-2-[[2-(difluoromethyl)-4-(trifluoromethyl)imidazol-1-yl]methyl]pyrimidine] | 1 (1=0-20%) | 5 (5=81-100%) | 5 (5=81-100%) | 1 (1=0-20%) | 3 (3=41-60%) | 1 (1=0-20%) | 1 (1=0-20%) | 1 (1=0-20%) | 1 (1=0-20%) | 2 (2=21-40%)
3 | FC(F)(F)c1cn(Cc2ncc(Cl)cn2)c(CCn2ccc(C(F)(F)F)n2)n1 [Compound 1.033] | 3 (3=41-60%) | 5 (5=81-100%) | 5 (5=81-100%) | 4 (4=61-80%) | 5 (5=81-100%) | 3 (3=41-60%) | 4 (4=61-80%) | 3 (3=41-60%) | 3 (3=41-60%) | 4 (4=61-80%)
4 | FC(F)(F)CCCc1nc(Br)cn1Cc1ncc(Cl)cn1 [Compound 1.003, 2-[[4-bromo-2-(4,4,4-trifluorobutyl)imidazol-1-yl]methyl]-5-chloro-pyrimidine] | 1 (1=0-20%) | 1 (1=0-20%) | 1 (1=0-20%) | 1 (1=0-20%) | 2 (2=21-40%) | 1 (1=0-20%) | 2 (2=21-40%) | 2 (2=21-40%) | 1 (1=0-20%) | 2 (2=21-40%)
5 | FC(F)(F)CCCc1nc(Cl)c(Cl)n1Cc1ncc(Cl)cn1 [Compound 1.004, 5-chloro-2-[[4,5-dichloro-2-(4,4,4-trifluorobutyl)imidazol-1-yl]methyl]pyrimidine] | 3 (3=41-60%) | 5 (5=81-100%) | 5 (5=81-100%) | 4 (4=61-80%) | 2 (2=21-40%) | 3 (3=41-60%) | 4 (4=61-80%) | 4 (4=61-80%) | 4 (4=61-80%) | 3 (3=41-60%)
6 | CCCCc1nc(C(F)F)cn1Cc1ncc(Cl)cc1F [Compound 1.054, 2-[[2-butyl-4-(difluoromethyl)imidazol-1-yl]methyl]-5-chloro-3-fluoro-pyridine] | 1 (1=0-20%) | 3 (3=41-60%) | 4 (4=61-80%) | 1 (1=0-20%) | 1 (1=0-20%) | 1 (1=0-20%) | 3 (3=41-60%) | 2 (2=21-40%) | 1 (1=0-20%) | 2 (2=21-40%)
7 | CC(C)Cc1nc(C(F)(F)F)cn1Cc1ncc(Cl)cn1 [Compound 1.021] | 1 (1=0-20%) | 3 (3=41-60%) | 5 (5=81-100%) | 1 (1=0-20%) | 4 (4=61-80%) | 1 (1=0-20%) | 3 (3=41-60%) | 3 (3=41-60%) | 1 (1=0-20%) | 3 (3=41-60%)
8 | OCC(O)CCc1nc(C(F)(F)F)cn1Cc1ncc(Cl)cn1 (centres unmarked) [Compound 1.011, 4-[1-[(5-chloropyrimidin-2-yl)methyl]-4-(trifluoromethyl)imidazol-2-yl]butane-1,2-diol] | 1 (1=0-20%) | 1 (1=0-20%) | 1 (1=0-20%) | 1 (1=0-20%) | 1 (1=0-20%) | 1 (1=0-20%) | 2 (2=21-40%) | 2 (2=21-40%) | 1 (1=0-20%) | 3 (3=41-60%)
9 | C#Cc1nc(C(F)(F)F)cn1Cc1ncc(Cl)cn1 [Compound 1.084] | 1 (1=0-20%) | 2 (2=21-40%) | 1 (1=0-20%) | 1 (1=0-20%) | 1 (1=0-20%) | 1 (1=0-20%) | 2 (2=21-40%) | 2 (2=21-40%) | 1 (1=0-20%) | 1 (1=0-20%)
10 | CC(F)(F)CCc1nc(C(F)(F)F)cn1Cc1ncc(Cl)cn1 [Compound 1.085] | 5 (5=81-100%) | 5 (5=81-100%) | 5 (5=81-100%) | 5 (5=81-100%) | 5 (5=81-100%) | 4 (4=61-80%) | 5 (5=81-100%) | 5 (5=81-100%) | 5 (5=81-100%) | 4 (4=61-80%)
11 | FC(F)(F)c1cn(Cc2ncc(Cl)cn2)c(CCl)n1 [Compound 1.071, 5-chloro-2-[[2-(chloromethyl)-4-(trifluoromethyl)imidazol-1-yl]methyl]pyrimidine] | 1 (1=0-20%) | 3 (3=41-60%) | 2 (2=21-40%) | 1 (1=0-20%) | 1 (1=0-20%) | 1 (1=0-20%) | 1 (1=0-20%) | 1 (1=0-20%) | 1 (1=0-20%) | 1 (1=0-20%)
